Reference: USRE43712E1, “Methods for assaying for antidepressant therapy markers” (The Board of Trustees of the Uniersity of Illinois, priority 2000, dated 2012)
Marks after values point to notes of the source that are not given here.

Assays:
Assay type in all cases: cell-based
Gsα [1] = test: Sequential detergent extraction (Triton X-100 / Triton X-114) of Gsα from C6-2B glioma membranes; settings: C6-2B cells; for GsαL in Remainder, % of corresponding value in control group / GsαL in Triton X-100 extract, % of corresponding value in control group / GsαL in Triton X-114 extract, % of corresponding value in control group / GsαS in Remainder, % of corresponding value in control group / GsαS in Triton X-100 extract, % of corresponding value in control group / GsαS in Triton X-114 extract, % of corresponding value in control group: mean ± SEM of 4-5 experiments
Method: (§1) C6-2B cells (between passages 20 and 40) were grown in 175-cm^2 flasks in Dulbecco's modified Eagle medium, 4.5 g of glucose/L, 10% bovine serum, in a 10% CO2 atmosphere, at 37° C. for 3 days after splitting. […] Male Sprague-Dawley rats weighing 150-200 g were fed ad libitum and maintained in a 12-h light/dark cycle. […] 36:803-838, 1989]. […] Rat cerebral cortex membranes were prepared according to the method of Rasenick et al. [Nature, 294:560-562; 1981].
Membrane proteins were extracted sequentially from C6-2B or rat synaptic membranes as described [Yan et al., J. Neurochem., 66:1489-1495; 1996]. These membranes were stirred on ice in HEPES (15 mM, pH 7.4) containing 1% Triton X-100 for 60 min followed by centrifugation at 100,000 g for 60 min at 4° C. The supernatant was reserved (Triton X-100 extract), and the resulting pellet was resuspended in Tris (15 mM, pH 7.4) containing 1.4% Triton X-114 and 150 mM NaCl. The solution was stirred for 60 min at 4° C. and centrifuged for 30 min at 100,000 g in the cold. The supernatant was saved (Triton X-114 extract). These supernatants and remaining pellet (remainder) were subjected to sodium dodecyl sulfate (SDS)-polyacrylamide gel electophoresis (PAGE) using 10% gels. All of the extraction buffers contained 1 mM PMSF and 1 mM EGTA.
(§2) Rat cortex membrane, C6-2B cell membranes, or Triton extracts of each membrane preparation were subjected to SDS-PAGE followed by electrotransfer to polyvinylidene difluoride (PVDF) membrane. The PVDF membrane was incubated with a phosphate-buffered saline/Tween 20 Buffer (140 mM NaCl, […]. 0.1% Tween 20, pH 7.4) and 3% bovine serum albumin. The membrane was then incubated with polyclonal rabbit antisera against the various G protein subunits [RM (Gsα) or 116 (Gi1, Gi2, Gi3α)] at a 1:25,000 (RM) or 1:5,000 (116) dilution (see below for source of antibodies). […] Immunoreactivity was detected with an enhanced chemiluminescence (ECL) western blot detection system (Amersham) in accord with the manufacturer's instructions. The developed autoradiographs were analyzed by densitometry.
A membrane-enriched fraction was prepared (see Example 1), and membrane proteins were extracted sequentially with Triton X-100 (Tx 100) and Triton X-114 (Tx 114). Equal amounts of these extracts were subjected to SDS-PAGE and transferred to PVDF membrane. The long and short forms of Gsα (GsαL and GsαS) from different fractions were identified by immunodetection.
Experiments were conducted according to the method set forth in Example 1 to assess the effects of different antidepressants on the detergent extraction of Gsα from C6-2B glioma cells.
The ratios of the percentage of Gsα extracted by the two detergents in the treatment versus control groups were compared and are set forth in Table 2 as percentage of control (i.e., each Triton X-100 extract was compared with the untreated Triton X-100 extract; the same was done for Triton X-114 extracts as well as the remainder).

Gsα [2] = test: Gsα in Triton-insoluble, caveolin-enriched versus Triton-soluble fraction of C6-2B cells (sucrose density gradient, immunoblot); settings: chronic treatment, FIG. 3C
Method: as §2

Gsα [3] = test: Cellular localization of Gsα in C6-2B cells, immunofluorescence laser scanning confocal microscopy; settings: 10 μM, 3 days
Method: C6-2B cells (between passages 30 and 50) were plated onto coverslips and allowed to attach overnight in Dulbecco's modified Eagle's medium. 4.5 g/l glucose, 10% bovine serum, and 100 μg/ml penicillin and streptomycin at 37° C. in a humidified 10% CO2 atmosphere. […] Therefore, the latter treatment paradigm was used in these experiments because it was easier to maintain the cell cultures for 3 days. […] The culture media and drug were changed daily. […] After the treatment duration, the cells were incubated in drug-free media for 45 to 60 minutes before fixation.
After treatment, cells were washed once with phosphate-buffered saline (PBS, […] NaCl, 2.6 mM KCl, 5.4 mM NaαPO4 7H2O, pH 7.4) and fixed with ice-cold methanol for 10 minutes. Cells were then washed three times with PBS followed by 2 h of blocking in 5% normal goat serum/0.2% fish skin gelatin in PBS. Primary antibody was added for 1.5 h, Gsα/RM1 (PerkinElmer Life Sciences, Boston, Mass.) 1:50 and Goα (Santa Cruz Biotechnology, Santa Cruz, Calif.) 2 μg/ml, followed by three washes with PBS. Oregon Green-labeled secondary antibody (Molecular Probes, Eugene, Oreg.) was added at a concentration of 8 μg/ml for 1 h followed by three PBS washes. The coverslips were mounted onto slides with Vectashield (Vector Laboratories. Burlingame, Calif.) containing diamidino-2-phenylindole as a mounting medium. Images were acquired using a Zeiss LSM510 laser-scanning confocal microscope (Carl Zeiss Inc., Thornwood, N.Y.). A single 488-nm beam from an argon/krypton laser was used for excitation of the Oregon Green. Differential interference contrast images were also acquired. Five experiments were performed and coverslips were examined. Approximately 2100 cells from control and desipramine-treated coverslips were counted by two investigators blind to the experimental conditions over the course of the five experiments.
The cellular distribution of Gsα was quantified in confocal imaged C6-2B cells using NIH-Image software (http://rsbinfonihpov/nih-image) as describe previously [Southwell et al., Cell Tissue Res., 292:37-45, 1998; Jenkinson et al., Br. J. Pharmacol., 126:131-136, 1999]. Images of 9×1 μm optical, planar sections taken from four randomly selected control and four randomly selected desipramine-treated cells were captured and the middle five sections from each cell were quantified. Total cellular Gsα fluorescence was measured by counting the number of pixels with intensity above threshold (determined by minimum intensity above background in this case 50 pixels). The areas of intensity were numbered and divided visually into those localized to the cell body and those localized to the processes and process tips. The total from each region was divided by the total cell pixel intensity and expressed as a percentage of the total. This was done for each section of each cell and the sections were averaged per cell to give an average percentage total per cell.
In a separate investigation, seven sets of 300 cells each from control group and desipramine-treated cells from five experiments were counted to determine the primary localization (processes and process tips or cell body) of Gsα within these cells. The majority of the cells stained positively for Gsα throughout the entire cell, but there was usually an enhancement in one of these regions. […] The counts are expressed as the ratio of process and process tip localization/cell body localization.
Studies were conducted to determine whether a shift in cellular localization of Gsα occurred in C6-2B cells subjected to antidepressants.
Twenty-one hundred cells from each group (control versus desipramine-treated) over a series of five experiments were examined to quantify the extent of the antidepressant effect. […] Abnormal cells or those not displaying processes were not included in the cell count. Cells (300-450) were counted per experiment and the ratio of category A cells to category B cells for each group is shown in FIG. 8. […]

Gsα [4] = test: Content of G protein (Gsα) in C6-2B glioma membranes after antidepressant treatment, quantitative immunoblot
Method: as §1, §2
Purified recombinant GsαL (long form of Gsα; 1-10 ng/lane) was subjected to SDS-PAGE and transferred to PVDF membranes. The blots were incubated with antibody against Gsα (RM) and processed by ECL. Films were analyzed on a Molecular Dynamics densitometer, and the volume of each band was quantified and used to make a standard curve.
Experiments were conducted to determine whether Gsα is quantitatively altered by antidepressant therapy. For quantification of Gsα in C6-2B membrane, a standard curve was created using purified recombinant […]. Pure Gsα (1-20 ng/well) was subjected to SDS-PAGE and transferred to a PVDF membrane, Gsα was immunodetected by antisera against the as subunit of G protein.
To estimate the effect of antidepressant treatment on the amount of Gsα in C6-2B membranes, equal amounts (10 μg) of C6-2B glioma membrane proteins in control and chronically (3 days) antidepressant-treated groups were subjected to SDS-PAGE. Gsα was immunodetected by antisera against the αs subunit of G protein.

[5] = C6-2B membranes, 10 μM drug for 3 days, mean ± SEM of 4-5 experiments

Compound | Shift of Gsα to the less hydrophobic Triton X-100 fraction (Gsα [1]) | GsαL in Remainder, % of corresponding value in control group (Gsα [1]; 10 μM, 3 days) [%] | GsαL in Triton X-100 extract, % of corresponding value in control group (Gsα [1]; 10 μM, 3 days) | GsαL in Triton X-114 extract, % of corresponding value in control group (Gsα [1]; 10 μM, 3 days) | GsαS in Remainder, % of corresponding value in control group (Gsα [1]; 10 μM, 3 days) | GsαS in Triton X-100 extract, % of corresponding value in control group (Gsα [1]; 10 μM, 3 days) | GsαS in Triton X-114 extract, % of corresponding value in control group (Gsα [1]; 10 μM, 3 days) [%] | Decrease of the amount of Gsα in the caveolin-enriched Triton-insoluble fraction, normalized to equal caveolin (Gsα [2]) | Gsα immunofluorescence in cell processes and process tips (Gsα [3]) | Cells displaying intense Gsα staining at the process tips (and processes) (Gsα [3]; control 64%) [%] | GsαL in the Triton X-114 fraction versus control group (Gsα [1]; 10 μM, 3 days, FIG. 1) | Quantity of G proteins in membrane, treated versus control (Gsα [4]; C6-2B cells, 10 μM, 3 days, p>0.05) | G protein amount, Total (Gsα [4]; [5]) | G protein amount, αsL (Gsα [4]; [5]) | G protein amount, αsS (Gsα [4]; [5])
CN(C)CCCN1c2ccccc2Sc2ccc(Cl)cc21 [Chlorpromazine, chlorpromazine] | did not exert these effects | 83.8 ± 22.0 | 107.4 ± 8.3% | 105.7 ± 6.5% | 100.4 ± 31.6% | 113.4 ± 10.7% | 102.2 ± 15.6 | no more than 25% | uniform distribution of Gsα similar to control | 68 |  |  |  |  | 
CN(C)CCC=C1c2ccccc2CCc2ccccc21 [Amitriptyline, amitriptyline] |  | 83.4 ± 14.5 | 120.3 ± 3.7^b % | 84.5 ± 0.8^b % | 82.6 ± 5.1^a % | 140.3 ± 9.3^b % | 92.7 ± 3.8 |  |  |  | significantly lower | no significant differences | 13.10 ± 0.34 ng/10 ug of membrane protein | 8.13 ± 0.17 ng/10 ug of membrane protein | 4.98 ± 0.21 ng/10 ug of membrane protein
CC(N)Cc1ccccc1 (stereo not shown) [amphetamine] | without effect |  |  |  |  |  |  |  |  |  |  |  |  |  | 
